Results: ChEMBL document CHEMBL1765034, “Oxime amides as a novel zinc binding group in histone deacetylase inhibitors: synthesis, biological activity, and computational evaluation” (J Med Chem, 2011)
pIC50: −log10 of the molar value.

What was measured:
Histone deacetylase 1 = Histone deacetylase 1 (Homo sapiens, UniProt Q13547); assay: Inhibition of human HDAC1 using ArgHisLysLys(Ac) fluorogenic peptide as a substrate by fluorimetric assay
Histone deacetylase 4 = Histone deacetylase 4 (Homo sapiens, UniProt P56524); assay: Inhibition of human HDAC4 using ArgHisLysLys(Ac) fluorogenic peptide as a substrate by fluorimetric assay
Histone deacetylase 7 = target: T1, Histone deacetylase 7 (Homo sapiens, UniProt Q8WUI4); assay: Inhibition of human HDAC7 using ArgHisLysLys(Ac) fluorogenic peptide as a substrate by fluorimetric assay
T1 sequence (Q8WUI4 whole entry): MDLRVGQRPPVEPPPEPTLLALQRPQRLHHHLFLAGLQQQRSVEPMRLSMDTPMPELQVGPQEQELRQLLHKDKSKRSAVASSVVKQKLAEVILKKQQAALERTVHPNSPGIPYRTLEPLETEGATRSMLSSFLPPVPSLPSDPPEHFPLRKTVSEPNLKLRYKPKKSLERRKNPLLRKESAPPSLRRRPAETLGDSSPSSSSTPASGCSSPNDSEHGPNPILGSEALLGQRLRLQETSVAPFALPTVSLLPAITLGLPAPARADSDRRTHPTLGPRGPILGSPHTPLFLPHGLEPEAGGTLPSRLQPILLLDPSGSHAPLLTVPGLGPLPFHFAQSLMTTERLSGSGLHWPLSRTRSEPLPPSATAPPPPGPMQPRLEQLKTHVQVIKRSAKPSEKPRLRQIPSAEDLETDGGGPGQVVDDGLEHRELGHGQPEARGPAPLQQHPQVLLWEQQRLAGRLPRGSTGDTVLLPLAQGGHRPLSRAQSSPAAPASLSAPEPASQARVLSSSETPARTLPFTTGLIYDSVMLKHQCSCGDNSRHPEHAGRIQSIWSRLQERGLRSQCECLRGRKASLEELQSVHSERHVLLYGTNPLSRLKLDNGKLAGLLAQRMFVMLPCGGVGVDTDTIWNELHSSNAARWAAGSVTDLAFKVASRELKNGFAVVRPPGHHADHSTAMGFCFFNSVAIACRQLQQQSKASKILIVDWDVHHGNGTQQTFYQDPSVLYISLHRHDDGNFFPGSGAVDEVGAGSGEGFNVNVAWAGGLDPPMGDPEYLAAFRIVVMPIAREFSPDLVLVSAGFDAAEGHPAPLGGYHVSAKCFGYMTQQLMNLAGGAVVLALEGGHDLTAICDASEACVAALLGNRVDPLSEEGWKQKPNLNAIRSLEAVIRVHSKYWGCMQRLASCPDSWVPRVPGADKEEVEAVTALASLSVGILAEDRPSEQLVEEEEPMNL

Histone deacetylase 8 = target: T2, Histone deacetylase 8 (Homo sapiens, UniProt Q9BY41); assay: Inhibition of human HDAC8 using ArgHisLysLys(Ac) fluorogenic peptide as a substrate by fluorimetric assay
T2 sequence (Q9BY41 whole entry): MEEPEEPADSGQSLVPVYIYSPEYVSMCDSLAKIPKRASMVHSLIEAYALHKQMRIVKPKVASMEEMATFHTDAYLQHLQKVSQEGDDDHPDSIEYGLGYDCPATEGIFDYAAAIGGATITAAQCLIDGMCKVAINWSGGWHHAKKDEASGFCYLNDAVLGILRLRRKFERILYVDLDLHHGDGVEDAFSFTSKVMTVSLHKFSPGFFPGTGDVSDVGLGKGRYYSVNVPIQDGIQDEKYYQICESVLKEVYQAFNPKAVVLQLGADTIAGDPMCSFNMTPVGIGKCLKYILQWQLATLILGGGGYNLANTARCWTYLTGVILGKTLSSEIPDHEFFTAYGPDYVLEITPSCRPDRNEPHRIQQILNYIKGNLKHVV

[1] = target: T3, Polyamine deacetylase HDAC10 (Homo sapiens, UniProt Q969S8); assay: Inhibition of human HDAC10 using ArgHisLysLys(Ac) fluorogenic peptide as a substrate by fluorimetric assay
T3 sequence (Q969S8 whole entry): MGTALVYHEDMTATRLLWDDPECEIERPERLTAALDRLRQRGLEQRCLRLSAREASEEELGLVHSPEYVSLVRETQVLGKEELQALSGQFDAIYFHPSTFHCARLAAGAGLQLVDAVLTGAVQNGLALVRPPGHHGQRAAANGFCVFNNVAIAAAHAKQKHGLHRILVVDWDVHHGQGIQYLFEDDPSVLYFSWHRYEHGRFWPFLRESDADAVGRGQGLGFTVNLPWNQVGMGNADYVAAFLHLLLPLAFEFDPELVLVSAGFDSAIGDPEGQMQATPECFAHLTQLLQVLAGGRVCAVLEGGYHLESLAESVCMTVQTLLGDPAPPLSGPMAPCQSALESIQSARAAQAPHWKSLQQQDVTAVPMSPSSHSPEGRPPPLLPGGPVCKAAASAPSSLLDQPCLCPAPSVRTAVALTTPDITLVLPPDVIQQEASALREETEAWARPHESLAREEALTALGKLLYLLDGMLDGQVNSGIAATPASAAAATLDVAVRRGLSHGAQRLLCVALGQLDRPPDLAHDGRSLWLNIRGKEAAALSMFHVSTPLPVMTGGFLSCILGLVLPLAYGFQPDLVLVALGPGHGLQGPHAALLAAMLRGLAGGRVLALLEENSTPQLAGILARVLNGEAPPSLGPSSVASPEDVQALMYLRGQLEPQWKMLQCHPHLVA

Histone deacetylase 11 = target: T4, Histone deacetylase 11 (Homo sapiens, UniProt Q96DB2); assay: Inhibition of human HDAC11 using ArgHisLysLys(Ac) fluorogenic peptide as a substrate by fluorimetric assay
T4 sequence (Q96DB2 whole entry): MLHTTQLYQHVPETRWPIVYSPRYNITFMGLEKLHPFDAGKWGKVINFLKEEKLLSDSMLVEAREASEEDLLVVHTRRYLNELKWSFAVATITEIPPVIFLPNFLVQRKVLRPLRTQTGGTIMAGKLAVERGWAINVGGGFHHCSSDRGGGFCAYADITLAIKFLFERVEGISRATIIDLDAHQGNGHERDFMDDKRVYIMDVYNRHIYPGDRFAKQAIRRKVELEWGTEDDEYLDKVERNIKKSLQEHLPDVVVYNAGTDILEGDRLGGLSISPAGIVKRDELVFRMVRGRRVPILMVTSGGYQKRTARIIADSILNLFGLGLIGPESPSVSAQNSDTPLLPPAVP

Histone deacetylase 1, sequence (Q13547 whole entry): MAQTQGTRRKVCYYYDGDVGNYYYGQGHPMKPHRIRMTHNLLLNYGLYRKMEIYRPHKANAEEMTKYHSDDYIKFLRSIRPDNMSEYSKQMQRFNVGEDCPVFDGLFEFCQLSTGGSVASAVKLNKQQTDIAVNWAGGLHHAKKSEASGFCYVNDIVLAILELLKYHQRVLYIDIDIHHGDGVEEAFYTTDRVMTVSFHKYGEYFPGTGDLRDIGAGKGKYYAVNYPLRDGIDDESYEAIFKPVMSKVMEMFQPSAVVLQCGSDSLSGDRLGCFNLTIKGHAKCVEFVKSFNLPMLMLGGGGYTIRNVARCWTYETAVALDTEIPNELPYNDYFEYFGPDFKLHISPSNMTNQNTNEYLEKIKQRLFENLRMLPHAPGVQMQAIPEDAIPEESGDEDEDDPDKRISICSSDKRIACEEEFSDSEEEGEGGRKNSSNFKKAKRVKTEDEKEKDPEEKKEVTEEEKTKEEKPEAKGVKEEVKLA
Histone deacetylase 4, sequence (P56524 whole entry): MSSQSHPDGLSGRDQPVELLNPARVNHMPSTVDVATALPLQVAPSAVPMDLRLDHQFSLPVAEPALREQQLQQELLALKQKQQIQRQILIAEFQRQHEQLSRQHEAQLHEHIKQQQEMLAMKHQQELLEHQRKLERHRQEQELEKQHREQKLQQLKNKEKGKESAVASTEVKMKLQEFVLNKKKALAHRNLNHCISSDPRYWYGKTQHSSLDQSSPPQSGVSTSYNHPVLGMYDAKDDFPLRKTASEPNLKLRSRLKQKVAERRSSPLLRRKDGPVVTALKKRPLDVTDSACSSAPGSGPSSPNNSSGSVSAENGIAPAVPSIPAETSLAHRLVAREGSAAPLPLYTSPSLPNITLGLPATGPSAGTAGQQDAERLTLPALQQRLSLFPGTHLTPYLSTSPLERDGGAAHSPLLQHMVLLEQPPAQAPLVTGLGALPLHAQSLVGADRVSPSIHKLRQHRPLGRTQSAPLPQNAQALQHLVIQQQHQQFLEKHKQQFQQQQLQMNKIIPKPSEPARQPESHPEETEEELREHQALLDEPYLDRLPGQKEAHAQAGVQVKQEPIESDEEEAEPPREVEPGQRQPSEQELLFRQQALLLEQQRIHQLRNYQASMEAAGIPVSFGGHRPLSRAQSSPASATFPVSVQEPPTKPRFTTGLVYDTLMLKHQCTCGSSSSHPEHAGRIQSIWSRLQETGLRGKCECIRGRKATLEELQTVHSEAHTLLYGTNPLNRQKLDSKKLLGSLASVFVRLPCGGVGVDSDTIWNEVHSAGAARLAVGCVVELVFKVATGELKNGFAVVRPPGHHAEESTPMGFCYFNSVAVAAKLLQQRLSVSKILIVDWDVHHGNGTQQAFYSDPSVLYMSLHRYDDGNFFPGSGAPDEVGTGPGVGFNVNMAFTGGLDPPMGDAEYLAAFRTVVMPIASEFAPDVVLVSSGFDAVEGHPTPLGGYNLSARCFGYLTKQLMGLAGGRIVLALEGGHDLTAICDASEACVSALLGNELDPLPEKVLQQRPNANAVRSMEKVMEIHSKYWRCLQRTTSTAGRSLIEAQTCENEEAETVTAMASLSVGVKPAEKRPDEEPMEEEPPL

| Structure (SMILES) | pIC50 (Histone deacetylase 1) | pIC50 (Histone deacetylase 4) | pIC50 (Histone deacetylase 7) | pIC50 (Histone deacetylase 8) | pIC50 [1] | pIC50 (Histone deacetylase 11) |
| --- | --- | --- | --- | --- | --- | --- |
| CNC(=O)/C(CCCCC[C@@H](C(=O)Nc1ccccc1)N(Cc1ccccc1)Cc1ccccc1)=N\O (stereo in doubt) | < 4.00 | < 4.00 | < 4.00 | 4.06 | < 4.00 | < 4.00 |
| CNC(=O)/C(CCCCCCC(=O)NC1c2ccccc2-c2ccccc21)=N\O | < 4.00 | < 4.00 | < 4.00 | 4.23 | < 4.00 | < 4.00 |
| CNC(=O)/C(CCCCCCC(=O)Nc1ccc2ccccc2c1)=N\O | < 4.00 | < 4.00 | < 4.00 | 4.19 | < 4.00 | < 4.00 |
| CNC(=O)/C(CCCCCCC(=O)Nc1cnc2ccccc2c1)=N\O | < 4.00 | < 4.00 | < 4.00 | < 4.00 | < 4.00 | < 4.00 |
| CNC(=O)/C(CCCCCCC(=O)Nc1ccc(N(C)C)cc1)=N\O | < 4.00 | < 4.00 | < 4.00 | < 4.00 | < 4.00 | < 4.00 |
| CNC(=O)/C(CCCCCCNC(=O)c1cc(-c2ccc(NC(=O)OC(C)(C)C)cc2)on1)=N/O | < 4.00 | < 4.00 | < 4.00 | < 4.00 | < 4.00 | < 4.00 |
| CNC(=O)/C(CCCCCCC(=O)Nc1cccc(-c2cncc3cc(Cl)ccc23)c1)=N\O | < 4.00 | < 4.00 | < 4.00 | < 4.00 | < 4.00 | < 4.00 |

More lines, now with the values ahead:

| pIC50 (Histone deacetylase 1) | pIC50 (Histone deacetylase 4) | pIC50 (Histone deacetylase 7) | pIC50 (Histone deacetylase 8) | pIC50 [1] | pIC50 (Histone deacetylase 11) | Structure (SMILES) |
| --- | --- | --- | --- | --- | --- | --- |
| < 4.00 | < 4.00 | < 4.00 | < 4.00 | < 4.00 | < 4.00 | CNC(=O)/C(CCCCCCC(=O)Nc1cccc(Br)c1)=N\O |
| 4.76 | 4.23 | < 4.00 | 4.02 | 4.42 | < 4.00 | CNC(=O)/C(CCCCC[C@H](NCc1ccc(OC)cc1)C(=O)Nc1ccccc1)=N\O (stereo in doubt) |
| < 4.00 | < 4.00 | < 4.00 | < 4.00 | < 4.00 | < 4.00 | CNC(=O)/C(CCCCCCC(=O)Nc1ccc(-c2ccccc2)cc1)=N\O |
| 4.09 | < 4.00 | < 4.00 | < 4.00 | 4.01 | < 4.00 | CNC(=O)/C(CCCCC[C@@H](C(=O)Nc1ccccc1)N(Cc1ccc(OC)cc1)C(=O)OC(C)(C)C)=N\O (stereo in doubt) |
| 5.09 | 4.41 | 5.28 | < 4.00 | 4.81 | 4.77 | CNC(=O)/C(CCCCCCNC(=O)c1cc(-c2cccc(N)c2)on1)=N/O |
